Where “and” joins values, the source holds several entries; their conditions need not be identical. Equal entries are not always repeated. Toxic doses and inconclusive results are not listed.
System: BDF1 mice, B16 melanoma ip, median survival T/C
Assay: NCI In Vivo Anticancer Drug Screen. Data for tumor model B16 Melanoma (intraperitoneal) in B6D2F1 (BDF1) mice
Settings: endpoint: median survival time, higher = longer survival
Procedure, shortened: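 Mice with transplantable tumors; drug vs vehicle groups; endpoint survival or tumor size; value = T/C.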

[1] = dose: 6.25 mg/kg/injection, schedule: Q01DX009 (ip), vehicle: Klucel (hydroxypropylcellulose) (HPC)
[2] = dose: 12.5 mg/kg/injection, schedule: Q01DX009 (ip), vehicle: Klucel (hydroxypropylcellulose) (HPC)
[3] = dose: 12.5 mg/kg/injection, schedule: Q01DX009 (ip), vehicle: saline with Tween-80
[4] = dose: 50.0 mg/kg/injection, schedule: Q01DX009 (ip), vehicle: Klucel (hydroxypropylcellulose) (HPC)
[5] = dose: 100.0 mg/kg/injection, schedule: Q01DX009 (ip), vehicle: Klucel (hydroxypropylcellulose) (HPC)
[6] = dose: 200.0 mg/kg/injection, schedule: Q01DX009 (ip), vehicle: Klucel (hydroxypropylcellulose) (HPC)
[7] = dose: 25.0 mg/kg/injection, schedule: Q01DX009 (ip), vehicle: saline with Tween-80
[8] = dose: 50.0 mg/kg/injection, schedule: Q01DX009 (ip), vehicle: saline with Tween-80
[9] = dose: 100.0 mg/kg/injection, schedule: Q01DX009 (ip), vehicle: saline with Tween-80
[10] = dose: 0.75 mg/kg/injection, schedule: Q01DX009 (ip), vehicle: Klucel (hydroxypropylcellulose) (HPC)

Compound: CCOC(=O)c1ccc(NC(=O)Nc2nccs2)cc1
- T/C [1]: 102 % of control
- T/C (dose: 6.25 mg/kg/injection, schedule: Q01DX009 (oral), vehicle: Klucel (hydroxypropylcellulose) (HPC)): 113 % of control
- T/C [2]: 99 % of control
- T/C [3]: 110 % of control
- T/C (dose: 12.5 mg/kg/injection, schedule: Q01DX009 (oral), vehicle: Klucel (hydroxypropylcellulose) (HPC)): 108 % of control
- T/C (dose: 12.5 mg/kg/injection, schedule: Q01DX009 (oral), vehicle: saline with Tween-80): 107 % of control
- T/C (dose: 25.0 mg/kg/injection, schedule: Q01DX009 (ip), vehicle: Klucel (hydroxypropylcellulose) (HPC)): 96 % of control
- T/C (dose: 25.0 mg/kg/injection, schedule: Q01DX009 (oral), vehicle: Klucel (hydroxypropylcellulose) (HPC)): 110 % of control
- T/C (dose: 25.0 mg/kg/injection, schedule: Q01DX009 (oral), vehicle: saline with Tween-80): 109 % of control
- T/C [4]: 96 % of control
- T/C (dose: 50.0 mg/kg/injection, schedule: Q01DX009 (oral), vehicle: Klucel (hydroxypropylcellulose) (HPC)): 119 % of control
- T/C (dose: 50.0 mg/kg/injection, schedule: Q01DX009 (oral), vehicle: saline with Tween-80): 106 % of control
- T/C [5]: 114 % of control
- T/C (dose: 100.0 mg/kg/injection, schedule: Q01DX009 (oral), vehicle: Klucel (hydroxypropylcellulose) (HPC)): 102 % of control
- T/C (dose: 100.0 mg/kg/injection, schedule: Q01DX009 (oral), vehicle: saline with Tween-80): 119 % of control
- T/C [6]: 113 % of control
- T/C (dose: 200.0 mg/kg/injection, schedule: Q01DX009 (oral), vehicle: Klucel (hydroxypropylcellulose) (HPC)): 99 % of control
- T/C (dose: 200.0 mg/kg/injection, schedule: Q01DX009 (oral), vehicle: saline with Tween-80): 112 % of control
- T/C (dose: 400.0 mg/kg/injection, schedule: Q01DX009 (oral), vehicle: saline with Tween-80): 110 % of control

Compound: COC(=O)c1ccc[n+](CCc2c[nH]c3ccccc23)c1
- T/C [3]: 108 % of control
- T/C [7]: 99 % of control
- T/C [8]: 97 % of control

Compound: CC(C)(C)c1ccc(C(=O)C2CC2)cc1
- T/C [7]: 94 % of control
- T/C [8]: 99 % of control
- T/C [9]: 95 % of control

Compound: CCC(=O)C(CC)c1ccc(OC)cc1OC (configuration not stated)
- T/C [5]: 96 % of control
- T/C [6]: 103 % of control
- T/C (dose: 400.0 mg/kg/injection, schedule: Q01DX009 (ip), vehicle: Klucel (hydroxypropylcellulose) (HPC)): 100 % of control

Compound: CC(=O)Nc1ccc2c(c1)Cc1cc(NC=O)ccc1-2
- T/C [10]: 88 % of control
- T/C (dose: 1.5 mg/kg/injection, schedule: Q01DX009 (ip), vehicle: Klucel (hydroxypropylcellulose) (HPC)): 93 % of control
- T/C (dose: 3.0 mg/kg/injection, schedule: Q01DX009 (ip), vehicle: Klucel (hydroxypropylcellulose) (HPC)): 90 % of control

Compound: CCCCCCCCCCCCNC(=O)Nc1ccc(C)cc1C
- T/C [5]: 92 % of control
- T/C [6]: 96 % of control

Compound: Cc1ccc(NC(=O)COc2ccc(Cl)cc2)cc1Cl
- T/C (dose: 3.13 mg/kg/injection, schedule: Q01DX009 (ip), vehicle: saline with Tween-80): 101 % of control
- T/C (dose: 6.25 mg/kg/injection, schedule: Q01DX009 (ip), vehicle: saline with Tween-80): 106 % of control
- T/C [3]: 93 % of control and 101 % of control
- T/C [7]: 87 % of control
- T/C [8]: 96 % of control

Compound: CCC(C)C(N)C(=O)NC(CC(N)=O)C(=O)NC(CC(C)C)C(=O)NC(CCCCN)C(=O)NC(C)C(=O)NC(CC(C)C)C(=O)NC(C)C(=O)NC(C)C(=O)NC(CC(C)C)C(=O)NC(C)C(=O)NC(CCCCN)C(=O)NC(CCCCN)C(=O)NC(C(=O)NC(CC(C)C)C(N)=O)C(C)CC (configuration not stated)
- T/C (dose: 1.0 mg/kg/injection, schedule: Q01DX009 (ip), vehicle: Klucel (hydroxypropylcellulose) (HPC)): 97 % of control
- T/C (dose: 2.0 mg/kg/injection, schedule: Q01DX009 (ip), vehicle: Klucel (hydroxypropylcellulose) (HPC)): 97 % of control
- T/C (dose: 4.0 mg/kg/injection, schedule: Q01DX009 (ip), vehicle: Klucel (hydroxypropylcellulose) (HPC)): 91 % of control

Compound: CC(=O)O[C@@H]1CO[C@H]2O[C@H]3[C@@H](C(C=O)=C[C@H](O)[C@@H]4C5=C(C(C)C)CC[C@]5(C)CC[C@@]34C)[C@@]2(O)C1=O
- T/C [10]: 94 % of control
- T/C (dose: 3.12 mg/kg/injection, schedule: Q01DX009 (ip), vehicle: Klucel (hydroxypropylcellulose) (HPC)): 100 % of control
- T/C [1]: 89 % of control
- T/C [2]: 86 % of control

Compound: COC(=O)C(Br)C1CCCCC1 (configuration not stated)
- T/C [8]: 100 % of control
- T/C [9]: 103 % of control
- T/C (dose: 200.0 mg/kg/injection, schedule: Q01DX009 (ip), vehicle: saline with Tween-80): 99 % of control

Compound: CNC1=C(N2CC2)C(=O)C(NC)=C(N2CC2)C1=O
- T/C (dose: 0.01 mg/kg/injection, schedule: Q01DX009 (ip), vehicle: saline): 102 % of control
- T/C (dose: 0.1 mg/kg/injection, schedule: Q01DX009 (ip), vehicle: saline): 108 % of control
- T/C (dose: 0.2 mg/kg/injection, schedule: Q01DX009 (ip), vehicle: saline): 94 % of control

Compound: CCCCCCCNC(=O)Nc1cccc(Cl)c1C
- T/C [4]: 99 % of control
- T/C [5]: 90 % of control
- T/C [6]: 95 % of control

Compound: O=C1OC2CC1(O)CC(O)C2O (configuration not stated)
- T/C (dose: 6.25 mg/kg/injection, schedule: Q01DX009 (ip), vehicle: saline): 111 % of control
- T/C (dose: 12.5 mg/kg/injection, schedule: Q01DX009 (ip), vehicle: saline): 92 % of control
- T/C (dose: 25.0 mg/kg/injection, schedule: Q01DX009 (ip), vehicle: saline): 101 % of control
- T/C (dose: 50.0 mg/kg/injection, schedule: Q04DX003 (ip), vehicle: saline with Tween-80): 103 % of control
- T/C (dose: 100.0 mg/kg/injection, schedule: Q04DX003 (ip), vehicle: saline with Tween-80): 97 % of control
- T/C (dose: 200.0 mg/kg/injection, schedule: Q04DX003 (ip), vehicle: saline with Tween-80): 94 % of control

Compound: COC(=O)/C(C)=C/C=C/C(OC)C(OC(N)=O)/C(C)=C/C(C)C(O)C(CC(C)CC1=C(OC)C(=O)C=C(N)C1=O)OC (configuration not stated)
- T/C (dose: 12.5 mg/kg/injection, schedule: Q01DX005 (ip), vehicle: other): 103 % of control
- T/C (dose: 25.0 mg/kg/injection, schedule: Q01DX005 (ip), vehicle: other): 99 % of control
- T/C (dose: 50.0 mg/kg/injection, schedule: Q01DX005 (ip), vehicle: other): 108 % of control
- T/C (dose: 100.0 mg/kg/injection, schedule: Q01DX005 (ip), vehicle: other): 108 % of control
- T/C (dose: 200.0 mg/kg/injection, schedule: Q01DX005 (ip), vehicle: other): 86 % of control

Compound: COc1cccc2c1C(=O)c1c(O)c3c(c(O)c1C2=O)C[C@@](O)(/C(C)=N/NC(=O)c1ccc(Cl)cc1)C[C@@H]3OC1CC(N)C(O)C(C)O1 (some centres not stated)
- T/C (dose: 1.0 mg/kg/injection, schedule: Q01DX009 (ip), vehicle: suspension in saline): 155 % of control
- T/C (dose: 2.0 mg/kg/injection, schedule: Q01DX009 (ip), vehicle: suspension in saline): 188 % of control
- T/C (dose: 2.5 mg/kg/injection, schedule: Q01DX001 (ip), vehicle: saline with Tween-80): 155 % of control
- T/C (dose: 2.5 mg/kg/injection, schedule: Q01DX001 (ip), vehicle: water): 121 % of control
- T/C (dose: 4.0 mg/kg/injection, schedule: Q01DX009 (ip), vehicle: suspension in saline): 193 % of control
- T/C (dose: 5.0 mg/kg/injection, schedule: Q01DX001 (ip), vehicle: saline with Tween-80): 204 % of control
- T/C (dose: 5.0 mg/kg/injection, schedule: Q01DX001 (ip), vehicle: water): 279 % of control
- T/C (dose: 8.0 mg/kg/injection, schedule: Q01DX009 (ip), vehicle: suspension in saline): 322 % of control
- T/C (dose: 10.0 mg/kg/injection, schedule: Q01DX001 (ip), vehicle: saline with Tween-80): 196 % of control
- T/C (dose: 10.0 mg/kg/injection, schedule: Q01DX001 (ip), vehicle: water): 154 % of control and 300 % of control
- T/C (dose: 20.0 mg/kg/injection, schedule: Q01DX001 (ip), vehicle: saline with Tween-80): 280 % of control
- T/C (dose: 20.0 mg/kg/injection, schedule: Q01DX001 (ip), vehicle: water): 235 % of control
- T/C (dose: 40.0 mg/kg/injection, schedule: Q01DX001 (ip), vehicle: saline with Tween-80): 205 % of control

Compound: CCN(Cc1ccc(Cl)c(Cl)c1)c1ccc2nc(N)nc(N)c2c1C
- T/C (dose: 3.12 mg/kg/injection, schedule: Q01DX009 (ip), vehicle: distilled water + Tween-80): 110 % of control
- T/C (dose: 3.13 mg/kg/injection, schedule: Q01DX009 (ip), vehicle: Klucel (hydroxypropylcellulose) (HPC)): 89 % of control
- T/C [1]: 94 % of control
- T/C (dose: 6.25 mg/kg/injection, schedule: Q01DX009 (ip), vehicle: distilled water + Tween-80): 115 % of control
- T/C (dose: 12.5 mg/kg/injection, schedule: Q01DX009 (ip), vehicle: distilled water + Tween-80): 122 % of control

Compound: CC(=Nc1ccccc1)C1=C(O)C(Cc2ccccc2)NC1=O (configuration not stated)
- T/C [3]: 100 % of control
- T/C [7]: 102 % of control
- T/C [8]: 106 % of control
- T/C [9]: 98 % of control and 100 % of control

Source: PubChem BioAssay AID192 (DTP/NCI, 2004)
